Source: US9708334B2, “Substituted 2,4,5,6-tetrahydropyrrolo[3,4-c]pyrazole and 4,5,6,7-tetrahydro-2H-pyrazolo[4,3-c]pyridine compounds as GlyT1 inhibitors” (DART NEUROSCIENCE (CAYMAN) LTD., priority 2014, dated 2017)

Target: T1, GlyT1 (Homo sapiens, UniProt P48067)
T1 construct: expressed in transfected cells
T1 sequence (P48067 1-706): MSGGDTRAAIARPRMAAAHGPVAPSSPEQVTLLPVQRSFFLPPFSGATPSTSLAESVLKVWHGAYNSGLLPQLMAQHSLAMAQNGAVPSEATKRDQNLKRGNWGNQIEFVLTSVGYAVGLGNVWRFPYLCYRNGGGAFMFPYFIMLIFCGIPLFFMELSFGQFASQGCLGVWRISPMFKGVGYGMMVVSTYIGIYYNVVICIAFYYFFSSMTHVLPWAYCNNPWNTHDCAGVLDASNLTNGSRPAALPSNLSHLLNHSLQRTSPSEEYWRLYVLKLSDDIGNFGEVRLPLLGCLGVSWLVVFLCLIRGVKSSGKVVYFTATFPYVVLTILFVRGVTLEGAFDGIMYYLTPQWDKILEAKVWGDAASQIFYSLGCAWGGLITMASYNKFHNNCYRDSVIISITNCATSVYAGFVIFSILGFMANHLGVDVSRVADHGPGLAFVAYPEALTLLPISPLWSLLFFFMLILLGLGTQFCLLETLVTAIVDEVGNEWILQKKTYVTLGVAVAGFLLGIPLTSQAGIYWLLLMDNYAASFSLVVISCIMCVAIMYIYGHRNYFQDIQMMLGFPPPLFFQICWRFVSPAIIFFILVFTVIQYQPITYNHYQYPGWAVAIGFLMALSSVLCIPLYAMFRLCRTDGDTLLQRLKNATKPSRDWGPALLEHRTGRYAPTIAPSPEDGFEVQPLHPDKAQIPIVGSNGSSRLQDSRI
Assay: Glycine Transporter 1 (GlyT1) uptake assay, scintillation proximity assay of [14C]-glycine uptake
Format: cell-based
Settings: SPA, four parameter logistic fit, read-out: GlyT1 (pIC50) (converted)
Method in brief: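 [14C]-glycine uptake read by scintillation proximity on a plate counter. IC50 from four-parameter logistic fit of dose-response data.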

IC50 [µM]	Structure (SMILES)
0.1 to 1	CCOc1cc(-n2cc3c(n2)CN(C(=O)c2cc(C#N)ccc2O[C@@H](C)C(F)(F)F)C3)ccn1 [Example 371, 3-[2-(2-Ethoxypyridin-4-yl)-2H 4H 5H 6H-pyrrolo[3,4-c]pyrazole-5-carbonyl]-4-{[(2S)-1 1 1-trifluoropropan-2-yl]oxy}benzonitrile]
< 0.1	CC(C)Oc1ccc(C#N)cc1C(=O)N1Cc2cn(-c3ccnc(C(C)C)c3)nc2C1 [Example 374, 3-{2-[2-(Propan-2-yl)pyridin-4-yl]-2H 4H 5H 6H-pyrrolo[3,4-c]pyrazole-5-carbonyl}-4-(propan-2-yloxy)benzonitrile]
< 0.1	CC(C)c1cc(-n2cc3c(n2)CN(C(=O)c2cc(C#N)ccc2O[C@@H](C)C(F)(F)F)C3)ccn1 [Example 375, 3-{2-[2-(Propan-2-yl)pyridin-4-yl]-2H 4H 5H 6H-pyrrolo[3,4-c]pyrazole-5-carbonyl}-4-{[(2S)-1 1 1-trifluoropropan-2-yl]oxy}benzonitrile]
> 10	C[C@H](Oc1ccc(C#N)cc1C(=O)N1Cc2cnn(CC(C)(C)F)c2C1)C(F)(F)F [Example 379, 3-[1-(2-Fluoro-2-methylpropyl)-1H 4H 5H 6H-pyrrolo[3,4-c]pyrazole-5-carbonyl]-4-{[(2S)-1 1 1-trifluoropropan-2-yl]oxy}benzonitrile]
< 0.1	Cc1cc(-n2cc3c(n2)CN(C(=O)c2cc(C#N)ccc2OC(C)C)C3)cc(C)n1 [Example 381, 3-[2-(2 6-Dimethylpyridin-4-yl)-2H 4H 5H 6H-pyrrolo[3,4-c]pyrazole-5-carbonyl]-4-(propan-2-yloxy)benzonitrile]
1 to 10	CC(C)n1cc2c(n1)CN(C(=O)c1cc(C#N)ccc1O[C@@H](C)C(F)(F)F)C2 [Example 385, 3-[2-(Propan-2-yl)-2H 4H 5H 6H-pyrrolo[3,4-c]pyrazole-5-carbonyl]-4-{[(2 S)-1 1 1-trifluoropropan-2-yl]oxy}benzonitrile]
0.1 to 1	CC(C)Cn1cc2c(n1)CN(C(=O)c1cc(C#N)ccc1O[C@@H](C)C(F)(F)F)C2 [Example 386, 3-[2-(2-Methylpropyl)-2H 4H 5H 6H-pyrrolo[3,4-c]pyrazole-5-carbonyl]-4-{[(2S)-1 1 1-trifluoropropan-2-yl]oxy}benzonitrile]
1 to 10	C[C@H](Oc1ccc(C#N)cc1C(=O)N1Cc2cnn(C3CCCC3)c2C1)C(F)(F)F [Example 388, 3-{1-Cyclopentyl-1H 4H 5H 6H-pyrrolo[3,4-c]pyrazole-5-carbonyl}-4-{[(2 S)-1 1 1-trifluoropropan-2-yl]oxy}benzonitrile]
0.1 to 1	C[C@H](Oc1ccc(C#N)cc1C(=O)N1Cc2cn(C3CCCC3)nc2C1)C(F)(F)F [Example 389, 3-{2-Cyclopentyl-2H 4H 5H 6H-pyrrolo[3,4-c]pyrazole-5-carbonyl}-4-{[(2S)-1 1 1-trifluoropropan-2-yl]oxy}benzonitrile]
0.1 to 1	C[C@H](Oc1ccc(C#N)cc1C(=O)N1Cc2cn(-c3ccc(F)cc3F)nc2C1)C(F)(F)F [Example 391, 3-[2-(2 4-Difluorophenyl)-2H 4H 5H 6H-pyrrolo[3,4-c]pyrazole-5-carbonyl]-4-{[(2S)-1 1 1-trifluoropropan-2-yl]oxy}benzonitrile]
0.1 to 1	COCCCn1cc2c(n1)CN(C(=O)c1cc(C#N)ccc1O[C@@H](C)C(F)(F)F)C2 [Example 393, 3-[2-(3-Methoxypropyl)-2H 4H 5H 6H-pyrrolo[3,4-c]pyrazole-5-carbonyl]-4-{[(2S)-1 1 1-trifluoropropan-2-yl]oxy}benzonitrile]
1 to 10	C[C@H](Oc1ccc(C#N)cc1C(=O)N1Cc2cnn(CC3CCOCC3)c2C1)C(F)(F)F [Example 394, 3-[1-(Oxan-4-ylmethyl)-1H 4H 5H 6H-pyrrolo[3,4-c]pyrazole-5-carbonyl]-4-{[(2S)-1 1 1-trifluoropropan-2-yl]oxy}benzonitrile]
0.1 to 1	Cc1cccc(-n2cc3c(n2)CN(C(=O)c2cc(C#N)ccc2O[C@@H](C)C(F)(F)F)C3)c1F [Example 395]
< 0.1	CC(C)Cn1cc2c(n1)CN(C(=O)c1cc(S(C)(=O)=O)ccc1O[C@@H](C)C(F)(F)F)C2 [Example 399, 5-(5-Methanesulfonyl-2-{[(2S)-1 1 1-trifluoropropan-2-yl]oxy}benzoyl)-2-(2-methylpropyl)-2H 4H 5H 6H-pyrrolo[3,4-c]pyrazole]
< 0.1	CC(C)Cn1cc2c(n1)CN(C(=O)c1cc(S(C)(=O)=O)ccc1OC(C)C)C2 [Example 400, 5-[5-Methanesulfonyl-2-(propan-2-yloxy)benzoyl]-2-(2-methylpropyl)-2H 4H 5H 6H-pyrrolo[3,4-c]pyrazole]

Continued, molecule first:

Structure (SMILES)	IC50 [µM]
CC(C)Oc1cc(-n2cc3c(n2)CN(C(=O)c2cc(C#N)ccc2OC(C)C)C3)ccn1 [Example 373, 4-(Propan-2-yloxy)-3-{2-[2-(propan-2-yloxy)pyridin-4-yl]-2H 4H 5H 6H-pyrrolo[3,4-c]pyrazole-5-carbonyl}benzonitrile]	0.1 to 1
COc1c(C#N)ccc(C2(F)CCCC2)c1C(=O)N1Cc2cn(-c3ccnc(C)c3)nc2C1 [Example 376, 4-(1-Fluorocyclopentyl)-2-methoxy-3-[2-(2-methylpyridin-4-yl)-2H 4H 5H 6H-pyrrolo[3,4-c]pyrazole-5-carbonyl]benzonitrile]	< 0.1
COc1c(C#N)ccc(C2(F)CCCC2)c1C(=O)N1Cc2cn(-c3cncc(F)c3)nc2C1 [Example 377, 4-(1-Fluorocyclopentyl)-3-[2-(5-fluoropyridin-3-yl)-2H 4H 5H 6H-pyrrolo[3,4-c]pyrazole-5-carbonyl]-2-methoxybenzonitrile]	< 0.1
C[C@H](Oc1ccc(C#N)cc1C(=O)N1Cc2cn(CC(C)(C)F)nc2C1)C(F)(F)F [Example 378, 3-[2-(2-Fluoro-2-methylpropyl)-2H 4H 5H 6H-pyrrolo[3,4-c]pyrazole-5-carbonyl]-4-{[(2S)-1 1 1-trifluoropropan-2-yl]oxy}benzonitrile]	0.1 to 1
Cc1cc(-n2cc3c(n2)CN(C(=O)c2cc(C#N)ccc2O[C@@H](C)C(F)(F)F)C3)cc(C)n1 [Example 380, 3-[2-(2 6-Dimethylpyridin-4-yl)-2H 4H 5H 6H-pyrrolo[3,4-c]pyrazole-5-carbonyl]-4-{[(2S)-1 1 1-trifluoropropan-2-yl]oxy}benzonitrile]	< 0.1
C[C@H](Oc1ccc(C#N)cc1C(=O)N1Cc2cn(Cc3ccccc3)nc2C1)C(F)(F)F [Example 382]	0.1 to 1
C[C@H](Oc1ccc(C#N)cc1C(=O)N1Cc2cnn(Cc3ccccc3)c2C1)C(F)(F)F [Example 383]	1 to 10
CC(C)n1ncc2c1CN(C(=O)c1cc(C#N)ccc1O[C@@H](C)C(F)(F)F)C2 [Example 384, 3-[1-(Propan-2-yl)-1H 4H 5H 6H-pyrrolo[3,4-e]pyrazole-5-carbonyl]-4-{[(2S)-1 1 1-trifluoropropan-2-yl]oxy}benzonitrile]	1 to 10
CC(C)Cn1ncc2c1CN(C(=O)c1cc(C#N)ccc1O[C@@H](C)C(F)(F)F)C2 [Example 387, 3-[1-(2-Methylpropyl)-1H 4H 5H 6H-pyrrolo[3,4-c]pyrazole-5-carbonyl]-4-{[(2S)-1 1 1-trifluoropropan-2-yl]oxy}benzonitrile]	> 10
CC(C)Oc1ccc(C#N)cc1C(=O)N1Cc2cn(-c3ccc(F)cc3F)nc2C1 [Example 390, 3-[2-(2 4-Difluorophenyl)-2H 4H 5H 6H-pyrrolo[3,4-c]pyrazole-5-carbonyl]-4-(propan-2-yloxy)benzonitrile]	0.1 to 1
COCCCn1ncc2c1CN(C(=O)c1cc(C#N)ccc1O[C@@H](C)C(F)(F)F)C2 [Example 392, 3-[1-(3-Methoxypropyl)-1H 4H 5H 6H-pyrrolo[3,4-c]pyrazole-5-carbonyl]-4-{[(2S)-1 1 1-trifluoropropan-2-yl]oxy}benzonitrile]	> 10
C[C@H](Oc1ccc(C#N)cc1C(=O)N1Cc2cn(CC3CCOCC3)nc2C1)C(F)(F)F [Example 396, 3-[2-(Oxan-4-ylmethyl)-2H 4H 5H 6H-pyrrolo[3,4-c]pyrazole-5-carbonyl]-4-{[(2S)-1 1 1-trifluoropropan-2-yl]oxy}benzonitrile]	0.1 to 1
C[C@H](Oc1ccc(C#N)cc1C(=O)N1Cc2cn(-c3ccccc3F)nc2C1)C(F)(F)F [Example 397, 3-[2-(2-Fluorophenyl)-2H 4H 5H 6H-pyrrolo[3,4-c]pyrazole-5-carbonyl]-4-{[(2S)-1 1 1-trifluoropropan-2-yl]oxy}benzonitrile]	< 0.1
C[C@H](Oc1ccc(S(C)(=O)=O)cc1C(=O)N1Cc2cn(Cc3ccccc3)nc2C1)C(F)(F)F [Example 398, 2-Benzyl-5-(5-methanesulfonyl-2-{[(2S)-1 1 1-trifluoropropan-2-yl]oxy}benzoyl)-2H 4H 5H 6H-pyrrolo[3,4-c]pyrazole]	< 0.1
C[C@H](Oc1ccc(C#N)cc1C(=O)N1Cc2cn(CC3CCC3)nc2C1)C(F)(F)F [Example 401, 3-[2-(Cyclobutylmethyl)-2H 4H 5H 6H-pyrrolo[3,4-c]pyrazole-5-carbonyl]-4-{[(2S)-1 1 1-trifluoropropan-2-yl]oxy}benzonitrile]	0.1 to 1
